Data from patent US20220174981A1, “PROLINE TOLERANT TRIPEPTIDYL PEPTIDASES AND USES THEREOF” (DuPont Nutrition Biosciences APS, priority 2014, published 2022).

What was measured:
[1] = tested on: proline tolerant tripeptidyl peptidase (TRI083); test: Hydrolysis of 33-mer gliadin peptide, LC-MS label-free quantification; format: biochemical; details: for Relative MS peak intensities: 24° C., pH 4.5
Procedure: The 33-mer of gliadin (alpha-2-gliadin) (aa56-88) H-[…]-OH (Zedira GmbH; D-64293 Darmstadt, Germany) C190H273N43O47 (MW=3911.46) (1 mg/ml; 0.26 mM) was incubated at 24° C. in the presence of proline tolerant tripeptidyl peptidase (0.01 mg/ml TRI083) in a total volume of 1000 ul buffer (pH=4.5) (the ratio substrate/enzyme 100:1, w/w). Aliquots (100 ul) of enzyme reaction were stopped with 20 ul 5% trifluoroacetic acid (TFA) after 0, 1, 3, 5, 10, 15 and 30 minutes, respectively. The samples were then transferred to new vials and analyzed on the LTQ Orbitrap mass spectrometer.
The LC-MS/MS data was manually annotated using GPMAW to calculate theoretical values of fragmentation.

H-Ala-Ala-Phe-pNA = test: Low pH stability of tripeptidyl peptidases (pH 2.5, 40° C., 60 min), activity on H-Ala-Ala-Phe-pNA; format: biochemical; details: for OD410nm (Final): after pH 2.5, 40° C., 60 min; for OD410nm (Initial): without incubation at 40° C. for 60 min
Procedure: As requirements for utilization of the enzymes in feed for monogastric animals, the enzymes should be active at lower pH. For this reason the number of tripeptidyl peptidases has been tested with the reaction on synthetic substrate AAF (H-Ala-Ala-Phe-pNA. BACHEM, L-1095), at pH 2.5.
The tripeptide substrate AAF was prepared at 2.5 mg/ml in DMSO. Tripeptidyl peptidases were used as broth. The reaction mixture containing 2.5 μl enzyme and 90 μL glycine acetic acid-Tris buffer (each buffer components at 50 mM, pH 2.5) was prepared in 96 well incubation plates.
The incubation plate was mixed and incubated at 40° C. for 60 min. Then 50 μl 0.2M Mes-NaOH pH6.0 was added to each well, mixed at 600 rpm for 2 min. After that, 5 ul of the incubation mixture were taken to 96 well assay plate already filled with 85 μl 0.1M acetic acid buffer, pH4.0 and 5 μl 2.5 mg/ml AAF substrate solution.
The reaction mixture was stirred at 600 rpm for 2 min and read directly in a microplate reader (Molecular Devices, Denmark) at 410 nm at 30° C. every 30 second for 15 min.
To measure initial enzyme activity, similar procedure was performed except the step of enzyme incubation at 40° C. for 60 min.

proline tolerant tripeptidyl peptidase (TRI083), sequence (as listed by the source): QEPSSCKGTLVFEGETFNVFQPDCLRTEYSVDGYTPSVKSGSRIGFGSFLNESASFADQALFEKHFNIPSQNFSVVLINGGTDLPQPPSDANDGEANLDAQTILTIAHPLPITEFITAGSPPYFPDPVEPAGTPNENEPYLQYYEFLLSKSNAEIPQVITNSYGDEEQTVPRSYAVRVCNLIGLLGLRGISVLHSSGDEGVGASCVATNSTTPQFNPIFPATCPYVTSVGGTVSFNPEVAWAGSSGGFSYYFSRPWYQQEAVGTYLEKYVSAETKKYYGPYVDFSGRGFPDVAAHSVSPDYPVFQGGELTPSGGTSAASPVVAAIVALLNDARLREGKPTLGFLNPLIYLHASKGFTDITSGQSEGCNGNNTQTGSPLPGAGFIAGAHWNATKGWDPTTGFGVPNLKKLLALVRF

PYP
Relative MS peak intensities ([1]; 0 min with TRI083 0.01 mg/ml): 4 | Relative MS peak intensities ([1]; 1 min with TRI083 0.01 mg/ml): 7 | Relative MS peak intensities ([1]; 3 min with TRI083 0.01 mg/ml): 12 | Relative MS peak intensities ([1]; 5 min with TRI083 0.01 mg/ml): 15 | Relative MS peak intensities ([1]; 10 min with TRI083 0.01 mg/ml): 28 | Relative MS peak intensities ([1]; 15 min with TRI083 0.01 mg/ml): 48 | Relative MS peak intensities ([1]; 30 min with TRI083 0.01 mg/ml): 101

PQL
Relative MS peak intensities ([1]; 0 min with TRI083 0.01 mg/ml): 8 | Relative MS peak intensities ([1]; 1 min with TRI083 0.01 mg/ml): 21 | Relative MS peak intensities ([1]; 3 min with TRI083 0.01 mg/ml): 30 | Relative MS peak intensities ([1]; 5 min with TRI083 0.01 mg/ml): 32 | Relative MS peak intensities ([1]; 10 min with TRI083 0.01 mg/ml): 42 | Relative MS peak intensities ([1]; 15 min with TRI083 0.01 mg/ml): 58 | Relative MS peak intensities ([1]; 30 min with TRI083 0.01 mg/ml): 100

QPF
Relative MS peak intensities ([1]; 0 min with TRI083 0.01 mg/ml): 0 | Relative MS peak intensities ([1]; 1 min with TRI083 0.01 mg/ml): 4 | Relative MS peak intensities ([1]; 3 min with TRI083 0.01 mg/ml): 55 | Relative MS peak intensities ([1]; 5 min with TRI083 0.01 mg/ml): 7 | Relative MS peak intensities ([1]; 10 min with TRI083 0.01 mg/ml): 129 | Relative MS peak intensities ([1]; 15 min with TRI083 0.01 mg/ml): 26 | Relative MS peak intensities ([1]; 30 min with TRI083 0.01 mg/ml): 100

H-LQLQPFPQPQLPYPQPQLPYPQPQLPYPQPQPF-OH [Alpha-2 gliadin, 33-mer of gliadin (alpha-2-gliadin) (aa56-88), substrate, reference compound]
Relative MS peak intensities ([1]; 0 min with TRI083 0.01 mg/ml): 100 | Relative MS peak intensities ([1]; 1 min with TRI083 0.01 mg/ml): 10 | Relative MS peak intensities ([1]; 3 min with TRI083 0.01 mg/ml): 0 | Relative MS peak intensities ([1]; 5 min with TRI083 0.01 mg/ml): 0 | Relative MS peak intensities ([1]; 10 min with TRI083 0.01 mg/ml): 0 | Relative MS peak intensities ([1]; 15 min with TRI083 0.01 mg/ml): 0 | Relative MS peak intensities ([1]; 30 min with TRI083 0.01 mg/ml): 0 | detectability of the intact peptide over time ([1]; TRI083 0.01 mg/ml, substrate/enzyme 100:1): not detectable after 3 min | cleavage by proline tolerant tripeptidyl peptidase ([1]; proline in P3,P2,P1,P1′,P2′ and P3′ positions): consecutively into tri-peptides irrespective of a high proline content

LQL
Relative MS peak intensities ([1]; 0 min with TRI083 0.01 mg/ml): 3 | Relative MS peak intensities ([1]; 1 min with TRI083 0.01 mg/ml): 91 | Relative MS peak intensities ([1]; 3 min with TRI083 0.01 mg/ml): 88 | Relative MS peak intensities ([1]; 5 min with TRI083 0.01 mg/ml): 94 | Relative MS peak intensities ([1]; 10 min with TRI083 0.01 mg/ml): 94 | Relative MS peak intensities ([1]; 15 min with TRI083 0.01 mg/ml): 100 | Relative MS peak intensities ([1]; 30 min with TRI083 0.01 mg/ml): 100

YPQPQLPYPQPQLPYPQPQPF [intermediate product of alpha-2-gliadin hydrolysis]
Relative MS peak intensities ([1]; 0 min with TRI083 0.01 mg/ml): 79 | Relative MS peak intensities ([1]; 1 min with TRI083 0.01 mg/ml): 100 | Relative MS peak intensities ([1]; 3 min with TRI083 0.01 mg/ml): 52 | Relative MS peak intensities ([1]; 5 min with TRI083 0.01 mg/ml): 23 | Relative MS peak intensities ([1]; 10 min with TRI083 0.01 mg/ml): 23 | Relative MS peak intensities ([1]; 15 min with TRI083 0.01 mg/ml): 23 | Relative MS peak intensities ([1]; 30 min with TRI083 0.01 mg/ml): 20

LPY
Relative MS peak intensities ([1]; 0 min with TRI083 0.01 mg/ml): 5 | Relative MS peak intensities ([1]; 1 min with TRI083 0.01 mg/ml): 21 | Relative MS peak intensities ([1]; 3 min with TRI083 0.01 mg/ml): 46 | Relative MS peak intensities ([1]; 5 min with TRI083 0.01 mg/ml): 62 | Relative MS peak intensities ([1]; 10 min with TRI083 0.01 mg/ml): 90 | Relative MS peak intensities ([1]; 15 min with TRI083 0.01 mg/ml): 100 | Relative MS peak intensities ([1]; 30 min with TRI083 0.01 mg/ml): 94

B1: TRI053.1: tripeptidyl peptidase, SEQ ID No. 10/SEQ ID No. 37, used as broth (protein, listed as Aspergillus kawachii)
chain 1: VVHEKLAAVPSGWHHLEDAGSDHQISLSIALARKNLDQLESKLKDLSTPGESQYGQWLDQEEVDTLFPVASDKAVISWLRSANITHIARQGSLVNFATTVDKVNKLLNTTFAYYQRGSSQRLRTTEYSIPDDLVDSIDLISPTTFFGKEKTSAGLTQRSQKVDNHVAKRSNSSSCADTITLSCLKEMYNFGNYTPSASSGSKLGFASFLNESASYSDLAKFERLFNLPSQNFSVELINGGVNDQNQSTASLTEADLDVELLVGVGHPLPVTEFITSGEPPFIPDPDEPSAADNENEPYLQYYEYLLSKPNSALPQVISNSYGDDEQTVPEYYAKRVCNLIGLVGLRGISVLESSGDEGIGSGCRTTDGTNSTQFNPIFPATCPYVTAVGGTMSYAPEIAWEASSGGFSNYFERAWFQKEAVQNYLANHITNETKQYYSQFANFSGRGFPDVSAHSFEPSYEVIFYGARYGSGGTSAACPLFSALVGMLNDARLRAGKSTLGFLNPLLYSKGYKALTDVTAGQSIGCNGIDPQSDEAVAGAGIIPWAHWNATVGWDPVTGLGLPDFEKLRQLVLSL
chain 2: CADTITLSCLKEMYNFGNYTPSASSGSKLGFASFLNESASYSDLAKFERLFNLPSQNFSVELINGGVNDQNQSTASLTEADLDVELLVGVGHPLPVTEFITSGEPPFIPDPDEPSAADNENEPYLQYYEYLLSKPNSALPQVISNSYGDDEQTVPEYYAKRVCNLIGLVGLRGISVLESSGDEGIGSGCRTTDGTNSTQFNPIFPATCPYVTAVGGTMSYAPEIAWEASSGGFSNYFERAWFQKEAVQNYLANHITNETKQYYSQFANFSGRGFPDVSAHSFEPSYEVIFYGARYGSGGTSAACPLFSALVGMLNDARLRAGKSTLGFLNPLLYSKGYKALTDVTAGQSIGCNGIDPQSDEAVAGAGIIPWAHWNATVGWDPVTGLGLPDFEKLRQLVLS
modifications: used as fermentation broth
OD410nm (Final) (H-Ala-Ala-Phe-pNA): 0.356 | OD410nm (Initial) (H-Ala-Ala-Phe-pNA): 0.345

B2: TRI050: tripeptidyl peptidase, SEQ ID No. 7/SEQ ID No. 34, used as broth (protein, listed as Fusarium graminearum)
chain 1: KSYSHHAEAPKGWKVDDTARVASTGKQQVFSIALTMQNVDQLESKLLDLSSPDSKNYGQWMSQKDVTTAFYPSKEAVSSVTKWLKSKGVKHYNVNGGFIDFALDVKGANALLDSDYQYYTKEGQTKLRTLSYSIPDDVAEHVQFVDPSTNFGGTLAFAPVTHPSRTLTERKNKPTKSTVDASCQTSITPSCLKQMYNIGDYTPKVESGSTIGFSSFLGESAIYSDVFLFEEKFGIPTQNFTTVLINNGTDDQNTAHKNFGEADLDAENIVGIAHPLPFTQYITGGSPPFLPNIDQPTAADNQNEPYVPFFRYLLSQKEVPAVVSTSYGDEEDSVPREYATMTCNLIGLLGLRGISVIFSSGDIGVGAGCLGPDHKTVEFNAIFPATCPYLTSVGGTVDVTPEIAWEGSSGGFSKYFPRPSYQDKAVKTYMKTVSKQTKKYYGPYTNWEGRGFPDVAGHSVSPNYEVIYAGKQSASGGTSAAAPVWAAIVGLLNDARFRAGKPSLGWLNPLVYKYGPKVLTDITGGYAIGCDGNNTQSGKPEPAGSGIVPGARWNATAGWDPVTGYGTPDFGKLKDLVLSF
chain 2: CQTSITPSCLKQMYNIGDYTPKVESGSTIGFSSFLGESAIYSDVFLFEEKFGIPTQNFTTVLINNGTDDQNTAHKNFGEADLDAENIVGIAHPLPFTQYITGGSPPFLPNIDQPTAADNQNEPYVPFFRYLLSQKEVPAVVSTSYGDEEDSVPREYATMTCNLIGLLGLRGISVIFSSGDIGVGAGCLGPDHKTVEFNAIFPATCPYLTSVGGTVDVTPEIAWEGSSGGFSKYFPRPSYQDKAVKTYMKTVSKQTKKYYGPYTNWEGRGFPDVAGHSVSPNYEVIYAGKQSASGGTSAAAPVWAAIVGLLNDARFRAGKPSLGWLNPLVYKYGPKVLTDITGGYAIGCDGNNTQSGKPEPAGSGIVPGARWNATAGWDPVTGYGTPDFGKLKDLVLS
modifications: used as fermentation broth
OD410nm (Final) (H-Ala-Ala-Phe-pNA): 0.814 | OD410nm (Final) (H-Ala-Ala-Phe-pNA; listed as TRI050.3): 0.501 | OD410nm (Initial) (H-Ala-Ala-Phe-pNA): 0.895 | OD410nm (Initial) (H-Ala-Ala-Phe-pNA; listed as TRI050.3): 0.603
